Measured values as given in patent US20150125889A1, “IN VITRO DETECTION OF MICROORGANISMS WITH AZOREDUCTASE ACTIVITY” (BIOMÉRIEUX, priority 2012, published 2015).

How the values were obtained:
Assay in all cases: Reduction of azo substrates over 24 hours at 35° C., microtitration plate (Example 1)
Assay type in all cases: cell-based
[1] = system: Acinetobacter baumanii; design: key to RED (substrate reduced or not): RED indicates whether the substrate is reduced (Y) or not (N); RED indicates whether the substrate is reduced (Y) or not (N); key to Decol (substrate decolourized, decrease in absorbance) / Fluo (fluorescence multiplied by 2 relative to substrate-free control) / Co (growth, absorbance at 660 nm): The symbol “+” means good growth/decolourization/significant increase in fluorescence; The symbol “+/−” means difficult growth; The symbol “−” means that there is no growth/decolourization/significant increase in fluorescence; details: A. baumannii, substrate 35 mg/l
In short: (§1)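 Reduction is called when the dye decolourizes or its fluorescence reaches twice the base level of a substrate-free control. Cultures (one strain per species, 0.5 McFarland) grow in Trypcase soya broth containing 35 mg/l substrate for 24 hours at 35° C.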

[2] = system: Enterococcus faecalis; design: key to RED (substrate reduced or not): RED indicates whether the substrate is reduced (Y) or not (N); RED indicates whether the substrate is reduced (Y) or not (N); key to Decol (substrate decolourized, decrease in absorbance) / Fluo (fluorescence multiplied by 2 relative to substrate-free control) / Co (growth, absorbance at 660 nm): The symbol “+” means good growth/decolourization/significant increase in fluorescence; The symbol “+/−” means difficult growth; The symbol “−” means that there is no growth/decolourization/significant increase in fluorescence; details: E. faecalis, substrate 35 mg/l
In short: as §1

[3] = system: Candida albicans; design: key to RED (substrate reduced or not): RED indicates whether the substrate is reduced (Y) or not (N); RED indicates whether the substrate is reduced (Y) or not (N); key to Co (growth, absorbance at 660 nm) / Decol (substrate decolourized, decrease in absorbance) / Fluo (fluorescence multiplied by 2 relative to substrate-free control): The symbol “+” means good growth/decolourization/significant increase in fluorescence; The symbol “+/−” means difficult growth; The symbol “−” means that there is no growth/decolourization/significant increase in fluorescence; details: substrate 35 mg/l
In short: as §1

[4] = system: Staphylococcus aureus; design: key to RED (substrate reduced or not): RED indicates whether the substrate is reduced (Y) or not (N); RED indicates whether the substrate is reduced (Y) or not (N); key to Co (growth, absorbance at 660 nm) / Decol (substrate decolourized, decrease in absorbance) / Fluo (fluorescence multiplied by 2 relative to substrate-free control): The symbol “+” means good growth/decolourization/significant increase in fluorescence; The symbol “+/−” means difficult growth; The symbol “−” means that there is no growth/decolourization/significant increase in fluorescence; details: S. aureus, substrate 35 mg/l
In short: as §1

[5] = system: Pseudomonas aeruginosa; design: key to RED (substrate reduced or not): RED indicates whether the substrate is reduced (Y) or not (N); RED indicates whether the substrate is reduced (Y) or not (N); key to Co (growth, absorbance at 660 nm) / Decol (substrate decolourized, decrease in absorbance) / Fluo (fluorescence multiplied by 2 relative to substrate-free control): The symbol “+” means good growth/decolourization/significant increase in fluorescence; The symbol “+/−” means difficult growth; The symbol “−” means that there is no growth/decolourization/significant increase in fluorescence; details: P. aeruginosa, substrate 35 mg/l
In short: as §1

[6] = system: Kocuria rosea; design: key to RED (substrate reduced or not): RED indicates whether the substrate is reduced (Y) or not (N); RED indicates whether the substrate is reduced (Y) or not (N); key to Co (growth, absorbance at 660 nm) / Decol (substrate decolourized, decrease in absorbance) / Fluo (fluorescence multiplied by 2 relative to substrate-free control): The symbol “+” means good growth/decolourization/significant increase in fluorescence; The symbol “+/−” means difficult growth; The symbol “−” means that there is no growth/decolourization/significant increase in fluorescence; details: K. rosea, substrate 35 mg/l
In short: as §1

[7] = system: Geotrichum candidum; design: key to RED (substrate reduced or not): RED indicates whether the substrate is reduced (Y) or not (N); RED indicates whether the substrate is reduced (Y) or not (N); key to Co (growth, absorbance at 660 nm) / Decol (substrate decolourized, decrease in absorbance) / Fluo (fluorescence multiplied by 2 relative to substrate-free control): The symbol “+” means good growth/decolourization/significant increase in fluorescence; The symbol “+/−” means difficult growth; The symbol “−” means that there is no growth/decolourization/significant increase in fluorescence; details: G. candidum, substrate 35 mg/l
In short: as §1

[8] = system: Cronobacter muytjensii; design: key to RED (substrate reduced or not): RED indicates whether the substrate is reduced (Y) or not (N); RED indicates whether the substrate is reduced (Y) or not (N); key to Co (growth, absorbance at 660 nm) / Decol (substrate decolourized, decrease in absorbance) / Fluo (fluorescence multiplied by 2 relative to substrate-free control): The symbol “+” means good growth/decolourization/significant increase in fluorescence; The symbol “+/−” means difficult growth; The symbol “−” means that there is no growth/decolourization/significant increase in fluorescence; details: E. muytjensii, substrate 35 mg/l
In short: as §1

[9] = system: Escherichia coli; design: key to RED (substrate reduced or not): RED indicates whether the substrate is reduced (Y) or not (N); RED indicates whether the substrate is reduced (Y) or not (N); key to Co (growth, absorbance at 660 nm) / Decol (substrate decolourized, decrease in absorbance) / Fluo (fluorescence multiplied by 2 relative to substrate-free control): The symbol “+” means good growth/decolourization/significant increase in fluorescence; The symbol “+/−” means difficult growth; The symbol “−” means that there is no growth/decolourization/significant increase in fluorescence; details: E. coli, substrate 35 mg/l
In short: as §1

[10] = system: Staphylococcus epidermidis; design: key to RED (substrate reduced or not): RED indicates whether the substrate is reduced (Y) or not (N); RED indicates whether the substrate is reduced (Y) or not (N); key to Co (growth, absorbance at 660 nm) / Decol (substrate decolourized, decrease in absorbance) / Fluo (fluorescence multiplied by 2 relative to substrate-free control): The symbol “+” means good growth/decolourization/significant increase in fluorescence; The symbol “+/−” means difficult growth; The symbol “−” means that there is no growth/decolourization/significant increase in fluorescence; details: S. epidermidis, substrate 35 mg/l
In short: as §1

| SMILES | Co (growth, absorbance at 660 nm) [1] | Decol (substrate decolourized, decrease in absorbance) [1] | Fluo (fluorescence multiplied by 2 relative to substrate-free control) [1] | RED (substrate reduced or not) [1] | Co (growth, absorbance at 660 nm) [2] | Decol (substrate decolourized, decrease in absorbance) [2] | Fluo (fluorescence multiplied by 2 relative to substrate-free control) [2] | RED (substrate reduced or not) [2] | Co (growth, absorbance at 660 nm) [3] | Decol (substrate decolourized, decrease in absorbance) [3] | Fluo (fluorescence multiplied by 2 relative to substrate-free control) [3] | RED (substrate reduced or not) [3] | Co (growth, absorbance at 660 nm) [4] | Decol (substrate decolourized, decrease in absorbance) [4] | Fluo (fluorescence multiplied by 2 relative to substrate-free control) [4] | RED (substrate reduced or not) [4] | Co (growth, absorbance at 660 nm) [5] | Decol (substrate decolourized, decrease in absorbance) [5] | Fluo (fluorescence multiplied by 2 relative to substrate-free control) [5] | RED (substrate reduced or not) [5] | also measured |
| --- | --- | --- | --- | --- | --- | --- | --- | --- | --- | --- | --- | --- | --- | --- | --- | --- | --- | --- | --- | --- | --- |
| O=S(=O)([O-])c1ccc(/N=N/c2ccc(O)c3ccccc23)cc1.[Na+] [Orange I] | + | +/− | − | Y | + | + | − | Y | + | − | − | N | + | + | − | Y | + | − | − | N | Co (growth, absorbance at 660 nm) [6]: −; Decol (substrate decolourized, decrease in absorbance) [6]: −; Fluo (fluorescence multiplied by 2 relative to substrate-free control) [6]: −; Co (growth, absorbance at 660 nm) [7]: +/−; Decol (substrate decolourized, decrease in absorbance) [7]: −; Fluo (fluorescence multiplied by 2 relative to substrate-free control) [7]: −; RED (substrate reduced or not) [7]: N; Co (growth, absorbance at 660 nm) [8]: +; Decol (substrate decolourized, decrease in absorbance) [8]: +; Fluo (fluorescence multiplied by 2 relative to substrate-free control) [8]: −; RED (substrate reduced or not) [8]: Y; Co (growth, absorbance at 660 nm) [9]: +; Decol (substrate decolourized, decrease in absorbance) [9]: +; Fluo (fluorescence multiplied by 2 relative to substrate-free control) [9]: −; RED (substrate reduced or not) [9]: Y; Co (growth, absorbance at 660 nm) [10]: +; Decol (substrate decolourized, decrease in absorbance) [10]: +; Fluo (fluorescence multiplied by 2 relative to substrate-free control) [10]: −; RED (substrate reduced or not) [10]: Y |
| O=S(=O)([O-])c1ccc2c(N=Nc3ccccc3)c(O)c(S(=O)(=O)[O-])cc2c1.[Na+].[Na+] [Ponceau 2G] | + | − | − | N | + | + | − | Y | + | − | − | N | + | − | − | N | + | − | − | N | Co (growth, absorbance at 660 nm) [6]: −; Decol (substrate decolourized, decrease in absorbance) [6]: −; Fluo (fluorescence multiplied by 2 relative to substrate-free control) [6]: −; Co (growth, absorbance at 660 nm) [7]: +/−; Decol (substrate decolourized, decrease in absorbance) [7]: −; Fluo (fluorescence multiplied by 2 relative to substrate-free control) [7]: −; RED (substrate reduced or not) [7]: N; Co (growth, absorbance at 660 nm) [8]: +; Decol (substrate decolourized, decrease in absorbance) [8]: −; Fluo (fluorescence multiplied by 2 relative to substrate-free control) [8]: −; RED (substrate reduced or not) [8]: N; Co (growth, absorbance at 660 nm) [9]: +; Decol (substrate decolourized, decrease in absorbance) [9]: −; Fluo (fluorescence multiplied by 2 relative to substrate-free control) [9]: −; RED (substrate reduced or not) [9]: N; Co (growth, absorbance at 660 nm) [10]: +; Decol (substrate decolourized, decrease in absorbance) [10]: −; Fluo (fluorescence multiplied by 2 relative to substrate-free control) [10]: −; RED (substrate reduced or not) [10]: N |
| O=S(=O)([O-])c1ccc(N=Nc2c(O)ccc3cc(S(=O)(=O)[O-])ccc23)cc1.[Na+].[Na+] [Sunset Yellow] | + | − | − | N | + | + | + | Y | + | + | + | Y | + | − | − | N | + | − | − | N | Co (growth, absorbance at 660 nm) [6]: −; Decol (substrate decolourized, decrease in absorbance) [6]: −; Fluo (fluorescence multiplied by 2 relative to substrate-free control) [6]: −; Co (growth, absorbance at 660 nm) [7]: +; Decol (substrate decolourized, decrease in absorbance) [7]: −; Fluo (fluorescence multiplied by 2 relative to substrate-free control) [7]: −; RED (substrate reduced or not) [7]: N; Co (growth, absorbance at 660 nm) [8]: +; Decol (substrate decolourized, decrease in absorbance) [8]: −; Fluo (fluorescence multiplied by 2 relative to substrate-free control) [8]: −; RED (substrate reduced or not) [8]: N; Co (growth, absorbance at 660 nm) [9]: +; Decol (substrate decolourized, decrease in absorbance) [9]: −; Fluo (fluorescence multiplied by 2 relative to substrate-free control) [9]: −; RED (substrate reduced or not) [9]: N; Co (growth, absorbance at 660 nm) [10]: +; Decol (substrate decolourized, decrease in absorbance) [10]: −; Fluo (fluorescence multiplied by 2 relative to substrate-free control) [10]: −; RED (substrate reduced or not) [10]: N |
